The source made the active and inactive calls.
Key:
P388/ADR = assay: cells; type: functional
P388 = assay: cells; type: functional
H4 = assay: Luminescence Cell-Based Dose Response HTS to Identify Activators of 5'UTR Stem-Loop Driven Prion Protein mRNA Translation in H4 Neuroglioblastoma Cells. [Related pubchem assays: 1829 (Project Summary), 1814 (Primary HTS)]; type: functional; settings: Homo sapiens
[1] = Luminescence Cell-Based Dose Confirmation HTS to Identify Activators of 5'UTR Stem-Loop Driven Alpha-Synuclein mRNA Translation in H4 Neuroglioblastoma Cells. [Related pubchem assays: 1829 (Project Summary), 1814 (Primary HTS)]; type: functional
[2] = Luminescence Cell-Based Dose Response HTS to Identify Activators of Luciferase Translation or Activity in H4 […] Cells. [Related pubchem assays: 1829 (Project Summary), 1814 (Primary HTS)]; type: functional
[3] = P. falciparum Dd2 growth inhibitors, dose response, SYBR Green, cherry-picked samples (AID 1159567); type: functional, cell-based
SN12K1 = assay: cells; type: functional; settings: Homo sapiens
[4] = microbe, parasite or virus in culture; type: functional; settings: Mycobacterium tuberculosis
[5] = Luminescence Cell-Based Dose Retest to Confirm Inhibitors of Cancer Stem Cells. [Related pubchem assays (depositor defined):AID2717, AID2721]; type: functional; settings: Homo sapiens
Protein skinhead-1 = target: T1, Protein skinhead-1 (Caenorhabditis elegans, UniProt P34707); type: functional
T1 sequence (P34707 whole entry): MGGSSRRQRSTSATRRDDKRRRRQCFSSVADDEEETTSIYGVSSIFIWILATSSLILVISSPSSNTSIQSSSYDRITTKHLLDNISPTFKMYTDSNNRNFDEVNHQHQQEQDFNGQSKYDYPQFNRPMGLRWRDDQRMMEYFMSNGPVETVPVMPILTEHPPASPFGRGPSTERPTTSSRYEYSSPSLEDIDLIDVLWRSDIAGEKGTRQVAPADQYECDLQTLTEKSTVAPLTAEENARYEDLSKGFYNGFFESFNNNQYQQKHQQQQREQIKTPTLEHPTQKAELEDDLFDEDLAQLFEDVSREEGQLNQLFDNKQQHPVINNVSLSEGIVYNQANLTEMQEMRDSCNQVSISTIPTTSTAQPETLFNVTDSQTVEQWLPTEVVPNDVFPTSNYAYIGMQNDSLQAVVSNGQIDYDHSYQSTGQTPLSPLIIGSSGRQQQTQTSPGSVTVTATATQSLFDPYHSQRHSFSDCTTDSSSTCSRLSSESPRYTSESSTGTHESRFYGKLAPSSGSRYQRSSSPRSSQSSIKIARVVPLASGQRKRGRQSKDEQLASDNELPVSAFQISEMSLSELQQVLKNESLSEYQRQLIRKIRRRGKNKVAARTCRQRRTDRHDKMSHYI

Streptococcus = assay: GAS UMAA2166 growth inhibition – luminescence, BacTiterGlo, counter-screen for streptokinase expression inhibitor project, dose response (AID 1915); type: functional, organism-based;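 also: potency for reduction of bacterial viability or growth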
Streptokinase A = target: T2, Streptokinase A (Streptococcus pyogenes serotype M1, UniProt P10520); assay: viability-normalized secreted streptokinase activity reduction – plasminogen activation absorbance, OD405, dose response (AID 1914); type: functional, Streptococcus pyogenes M1 GAS;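 also: secreted streptokinase activity via plasminogen activation per viability signal from cell pellet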
T2 sequence (P10520 whole entry): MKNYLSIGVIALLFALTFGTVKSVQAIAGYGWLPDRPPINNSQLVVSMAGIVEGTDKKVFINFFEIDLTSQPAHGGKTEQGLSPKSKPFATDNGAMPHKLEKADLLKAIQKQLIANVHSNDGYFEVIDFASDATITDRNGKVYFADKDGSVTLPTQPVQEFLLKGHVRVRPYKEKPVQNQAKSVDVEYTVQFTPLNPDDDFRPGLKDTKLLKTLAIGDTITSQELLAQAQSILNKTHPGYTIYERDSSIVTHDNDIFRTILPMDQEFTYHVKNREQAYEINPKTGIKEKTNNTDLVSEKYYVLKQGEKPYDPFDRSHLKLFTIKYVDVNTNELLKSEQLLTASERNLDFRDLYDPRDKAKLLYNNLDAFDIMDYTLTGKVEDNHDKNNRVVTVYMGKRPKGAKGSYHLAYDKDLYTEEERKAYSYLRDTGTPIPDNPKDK

[6] = system: Streptococcus sp. 'group A'; assay: Streptococcus pyogenes SK(-)GAS viability under kanamycin – luminescence, BacTiterGlo, confirmation, counter-screen for streptokinase expression inhibitor project, dose response (AID 1900); type: functional, organism-based
[7] = reduction of Shn3 3'UTR-driven luciferase in osteoblasts – cell-based, Clone20 osteoblasts, firefly luciferase, cherry-picked, dose response (AID 624132); type: functional;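 also: firefly luciferase luminescence from reporter carrying the Shn3 3'UTR in osteoblasts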
Fatty acid synthase [8] = target: T3, Fatty acid synthase (Homo sapiens, UniProt P49327); assay: inhibition of human FAS-TE enzyme activity – biochemical, endpoint fluorescence intensity, uHTS hits, dose response (AID 624327); type: functional;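 also: fluorescence from hydrolysis of an O-methyl fluorescein acyl ester substrate by the enzyme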
T3 sequence (P49327 whole entry): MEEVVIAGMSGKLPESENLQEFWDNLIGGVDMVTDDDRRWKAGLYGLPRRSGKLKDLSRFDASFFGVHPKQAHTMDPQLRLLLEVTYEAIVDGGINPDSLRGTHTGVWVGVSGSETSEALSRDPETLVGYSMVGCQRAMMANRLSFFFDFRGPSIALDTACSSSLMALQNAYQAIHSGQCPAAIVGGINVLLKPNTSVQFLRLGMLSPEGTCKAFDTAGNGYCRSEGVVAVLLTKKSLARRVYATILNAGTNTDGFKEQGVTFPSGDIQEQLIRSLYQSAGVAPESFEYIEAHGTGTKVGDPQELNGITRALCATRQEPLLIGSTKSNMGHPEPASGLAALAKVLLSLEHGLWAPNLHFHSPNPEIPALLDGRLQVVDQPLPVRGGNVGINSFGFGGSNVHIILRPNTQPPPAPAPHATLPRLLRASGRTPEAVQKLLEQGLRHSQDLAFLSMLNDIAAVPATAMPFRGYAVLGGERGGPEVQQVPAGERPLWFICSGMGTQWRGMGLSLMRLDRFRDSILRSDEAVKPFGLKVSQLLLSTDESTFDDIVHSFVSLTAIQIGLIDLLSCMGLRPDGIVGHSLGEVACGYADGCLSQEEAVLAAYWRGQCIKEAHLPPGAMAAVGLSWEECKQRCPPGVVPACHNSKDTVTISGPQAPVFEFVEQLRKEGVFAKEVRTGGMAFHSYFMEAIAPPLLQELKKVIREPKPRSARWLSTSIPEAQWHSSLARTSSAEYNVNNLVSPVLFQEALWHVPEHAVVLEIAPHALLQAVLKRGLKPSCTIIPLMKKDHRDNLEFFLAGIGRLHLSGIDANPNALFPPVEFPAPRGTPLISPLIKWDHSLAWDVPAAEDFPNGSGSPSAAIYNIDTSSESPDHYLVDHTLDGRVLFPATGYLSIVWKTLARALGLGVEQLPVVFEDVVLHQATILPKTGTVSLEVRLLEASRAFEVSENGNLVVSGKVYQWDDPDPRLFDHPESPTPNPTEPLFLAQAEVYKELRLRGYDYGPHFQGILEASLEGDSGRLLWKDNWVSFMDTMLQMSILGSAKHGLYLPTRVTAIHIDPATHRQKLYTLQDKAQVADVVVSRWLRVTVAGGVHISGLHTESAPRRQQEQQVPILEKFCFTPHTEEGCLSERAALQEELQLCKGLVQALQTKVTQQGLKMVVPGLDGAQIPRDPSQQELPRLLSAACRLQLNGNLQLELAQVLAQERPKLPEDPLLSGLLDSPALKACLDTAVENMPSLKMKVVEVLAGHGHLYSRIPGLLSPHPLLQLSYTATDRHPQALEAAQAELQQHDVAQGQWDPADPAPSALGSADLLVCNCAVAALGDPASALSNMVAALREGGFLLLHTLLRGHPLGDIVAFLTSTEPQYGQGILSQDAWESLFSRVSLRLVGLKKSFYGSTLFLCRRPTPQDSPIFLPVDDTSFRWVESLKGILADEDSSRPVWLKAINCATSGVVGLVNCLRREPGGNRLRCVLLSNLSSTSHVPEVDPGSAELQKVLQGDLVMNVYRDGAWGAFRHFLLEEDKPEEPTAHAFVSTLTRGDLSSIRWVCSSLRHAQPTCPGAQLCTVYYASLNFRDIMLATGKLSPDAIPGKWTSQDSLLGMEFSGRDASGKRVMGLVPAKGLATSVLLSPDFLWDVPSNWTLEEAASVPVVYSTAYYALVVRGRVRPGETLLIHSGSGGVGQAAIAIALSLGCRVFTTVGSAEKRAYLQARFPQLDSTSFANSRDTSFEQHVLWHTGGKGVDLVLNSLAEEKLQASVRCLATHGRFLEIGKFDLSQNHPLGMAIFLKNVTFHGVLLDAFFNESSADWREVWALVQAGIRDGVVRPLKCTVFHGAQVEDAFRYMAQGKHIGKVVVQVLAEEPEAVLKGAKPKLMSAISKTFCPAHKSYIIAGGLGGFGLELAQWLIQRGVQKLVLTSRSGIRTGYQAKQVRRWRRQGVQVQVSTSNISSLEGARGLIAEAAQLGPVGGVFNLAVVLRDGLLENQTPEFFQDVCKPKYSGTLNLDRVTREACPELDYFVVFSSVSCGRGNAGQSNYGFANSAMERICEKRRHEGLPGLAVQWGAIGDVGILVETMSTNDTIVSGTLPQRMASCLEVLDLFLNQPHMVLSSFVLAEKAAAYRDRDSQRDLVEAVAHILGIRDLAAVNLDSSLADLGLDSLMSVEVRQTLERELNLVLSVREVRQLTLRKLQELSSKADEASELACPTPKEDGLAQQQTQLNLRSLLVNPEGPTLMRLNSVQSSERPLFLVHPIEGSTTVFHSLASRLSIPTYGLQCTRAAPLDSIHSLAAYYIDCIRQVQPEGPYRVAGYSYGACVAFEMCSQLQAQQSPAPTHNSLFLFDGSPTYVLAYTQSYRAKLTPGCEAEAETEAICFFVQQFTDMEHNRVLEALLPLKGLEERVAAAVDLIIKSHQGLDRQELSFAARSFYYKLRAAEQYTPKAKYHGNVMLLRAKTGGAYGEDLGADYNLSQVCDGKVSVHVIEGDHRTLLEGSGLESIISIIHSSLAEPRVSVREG

[9] = loss of viability in HepG2 cells – cell-based, CellTiter-Glo, cherry-picked, cytotoxicity control for Shn3 inhibitor project, dose response (AID 624134); type: functional
Fatty acid synthase [10] = target: T3, Fatty acid synthase; assay: inhibition of human FAS-TE enzyme activity – biochemical, kinetic fluorescence intensity, dose response (AID 624326); type: functional;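 also: rate of fluorescence rise from hydrolysis of a fluorogenic O-methyl fluorescein ester substrate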
[11] = non-specific 3'UTR reporter inhibition in Clone20-Shn3RL – cell-based, Renilla luciferase, cherry-picked, counter-screen for Shn3 inhibitor project, dose response (AID 624133); type: functional

## Nc1ncn(C2OC(CO)C(O)C2O)c(=O)n1 (configuration not stated)
P388/ADR
  GI50: 0.489 µM (active)
P388/ADR; Mus musculus, P388/ADR
  GI50: 0.393 µM (active)
P388
  GI50: 0.452 µM (active)
P388; Mus musculus, P388
  GI50: 0.348 µM (active)

## Cn1c(NC(=O)/C=C/c2ccccc2)cc(=O)n(C)c1=O
H4
  EC50: 68.7 µM (inconclusive)
[1]
  EC50: 14.9 µM (active)
[2]
  EC50: 26.1 µM (active)

## N#C[C@@H]1[C@H](c2ccccc2C2=CCCCC2)[C@@H](CO)N1S(=O)(=O)c1ccccc1
[3]
  AC50: 15 µM (active)

## Cc1c(-c2ccc(-c3ccccc3F)cc2)nc2ccc(F)cc2c1C(=O)O [BREQUINAR SODIUM]
P388/ADR; Mus musculus, P388/ADR
  GI50: 0.197 µM (active)
P388; Mus musculus, P388
  GI50: 0.359 µM (active)
SN12K1
  GI50: 0.0902 µM (active)

## COc1ccc(C2=NN(C(=O)COC(=O)c3ccc(S(C)(=O)=O)c([N+](=O)[O-])c3)C(c3ccco3)C2)cc1 (configuration not stated)
[4]
  CC50: 9.73 µM (active)
[5]
  AC50: 1.52 µM (active)

## CC(C(=O)N1CCN(C)CC1)N1C(=O)c2ccccc2C1=O (configuration not stated)
Protein skinhead-1
  IC50: > 100 µM (inactive)

## CC(=O)Nc1ccc(S(=O)(=O)N2CCN=C2SCc2ccc(C)cc2)cc1
Streptococcus
  EC50: > 150 µM (not active)
H4
  EC50: 8.96 µM (active)
[1]
  EC50: 45 µM (active)
Streptokinase A
  EC50: > 150 µM (not active)
[2]
  EC50: 48.2 µM (active)
[6]
  EC50: > 150 µM (not active)

## Cc1ccc(Cn2nc(C)cc2C(=O)Nc2ccccc2Cl)cc1
H4
  EC50: 33.9 µM (active)
[1]
  EC50: 1.49 µM (active)
[2]
  EC50: 21.3 µM (active)

## CCCC(=O)N1CC2(C1)CN(Cc1ccccc1F)[C@H](CO)c1c2c2ccc(OC)cc2n1C
[3]
  AC50: 6.14 µM (active)

## CC(=O)c1ccc(NC(=O)COC(=O)c2c3c(nc4ccccc24)/C(=C\c2cccs2)CCC3)cc1
[4]
  CC50: 12.4 µM (active)
[5]
  AC50: 3.85 µM (active)

## O=C(COc1ccc(Br)cc1Cl)NC1CCCCC1
[1]
  EC50: 0.174 µM (active)
[2]
  EC50: 0.128 µM (inconclusive)

## O=[N+]([O-])c1ccc2c(c1)nc1n2CCN(C2CCCCC2)C1
[1]
  EC50: 17.6 µM (active)
[2]
  EC50: 80.8 µM (active)

## Clc1ccc(OCc2cnc(Cl)s2)cc1
Protein skinhead-1
  IC50: 13.2 µM (active)

## C=C1CC(OC)(C(O)C(=O)N[C@H]2OCO[C@H]3C2O[C@H](C[C@H](O)COC)C(C)(C)C3OC)O[C@H](C)[C@@H]1C (some centres not stated)
P388/ADR; Mus musculus, P388/ADR
  GI50: < 0.00773 µM (active)
P388; Mus musculus, P388
  GI50: < 0.00773 µM (active)
SN12K1
  GI50: < 0.00773 µM (active)

## COc1ccc2o/c(=N/c3cc(F)ccc3F)c(C(N)=O)cc2c1
H4
  EC50: > 120 µM (not active)
[1]
  EC50: > 120 µM (not active)
[2]
  EC50: > 120 µM (not active)

## Cc1cc(C)n(CC(O)COc2ccc3ccccc3c2)n1 (configuration not stated)
H4
  EC50: 31.3 µM (active)
[1]
  EC50: 16.4 µM (active)
[2]
  EC50: 16.5 µM (active)

## CC1(C)CC(=O)c2sc(N3CCCCC3)nc2C1
H4
  EC50: 74 µM (active)
[1]
  EC50: 8.85 µM (active)
[2]
  EC50: 68.7 µM (active)

## CCC(C(=O)Nc1cccc(S(=O)(=O)N(C)c2ccccc2)c1)c1ccccc1 (configuration not stated)
Protein skinhead-1
  IC50: > 100 µM (inactive)

## CC(=O)c1ccc(N2CCN(S(=O)(=O)c3ccc(-c4cnc(C5CC5)o4)cc3)CC2)cc1
[7]
  AC50: 5.95 µM (active)
Fatty acid synthase [8]
  IC50: 24.4 µM (inactive)
[9]
  AC50: 38.7 µM (active)
Fatty acid synthase [10]
  IC50: 11.6 µM (active)
[11]
  AC50: 20.8 µM (active)

## Cc1ccc(Nc2nc(/N=C/N(C)C)n[nH]2)cc1C
H4
  EC50: 28.2 µM (active)
[1]
  EC50: > 120 µM (not active)
[2]
  EC50: > 120 µM (not active)
